Assay results as given in patent publication US9839642B2, “Beta-tetrazolyl-propionic acids as metallo-beta-lactamase inhibitors” (priority 2014, dated 2017).
pIC50: −log10 of the molar value.

What was measured:
VIM-1 = VIM-1 (Pseudomonas aeruginosa, UniProt A0A0F7KYQ8); experiment: Enzyme activity: determination of IC50, fluorescence assay with CCF2-FA substrate; assay type: biochemical; details: VIM-1 enzyme 30 pM, CCF2-FA 1.25 μM, 2 hours at 25° C.; read-out: VIM1 IC50
Summary of the method: (§1)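 100 mM KH2PO4 pH 7 + 0.005% Tween-20 + 10 μM ZnSO4; CCF2-FA 1.25 μM; NDM-1 1 pM, IMP-1 2 pM, VIM-1 30 pM; cpd 20–0.00063 μM final, DMSO 1:50. 2 h, 25° C. Ex 405/em 460 nm; IC50, 4-param fit.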

IMP-1 = IMP-1 (Serratia marcescens, UniProt P52699); experiment: as above; assay type: biochemical; details: IMP-1 enzyme 2 pM, CCF2-FA 1.25 μM, 2 hours at 25° C.; read-out: IMP1 IC50
Summary of the method: as §1

NDM-1 = NDM-1 (Klebsiella pneumoniae, UniProt C7C422); experiment: as above; assay type: biochemical; details: NDM-1 enzyme 1 pM, CCF2-FA 1.25 μM, 2 hours at 25° C.; read-out: NDM1 IC50
Summary of the method: as §1

[1] = test system: Escherichia coli expressing NDM-1 (CLB30016); experiment: Antibiotic potentiation activity: synergistic concentration (MITC95) with imipenem, growth by OD600; assay type: cell-based; details: E. coli CLB30016 (NDM-1), 95% inhibition of growth
Summary of the method: (§2)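 MITC95 = lowest inhibitor concentration giving 95% growth inhibition, read by absorbance after 22–24 h at 35° C. Compound range 200 μM to 0.195 μM, imipenem fixed at 1 or 4 μg/ml, bacteria in 1.1×CAMHB from saline suspension diluted 1:100.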

[2] = test system: Serratia marcescens expressing IMP-1 (CL5741); experiment: as above; assay type: cell-based; details: S. marcescens CL5741 (IMP-1), 95% inhibition of growth
Summary of the method: as §2

[3] = test system: Klebsiella pneumoniae expressing VIM-1 (IHMA599644); experiment: as above; assay type: cell-based; details: K. pneumoniae IHMA599644 (VIM-1), 95% inhibition of growth
Summary of the method: as §2

Chain of IMP-1 (P52699 19-246, looked up, species assumed): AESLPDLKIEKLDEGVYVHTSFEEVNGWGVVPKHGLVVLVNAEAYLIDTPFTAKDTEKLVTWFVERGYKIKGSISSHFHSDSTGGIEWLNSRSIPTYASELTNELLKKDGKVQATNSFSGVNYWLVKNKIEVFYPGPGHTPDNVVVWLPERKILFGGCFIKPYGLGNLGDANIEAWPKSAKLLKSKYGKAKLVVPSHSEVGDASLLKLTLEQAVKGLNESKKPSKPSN
Chain of NDM-1 (C7C422 29-270, looked up, species assumed): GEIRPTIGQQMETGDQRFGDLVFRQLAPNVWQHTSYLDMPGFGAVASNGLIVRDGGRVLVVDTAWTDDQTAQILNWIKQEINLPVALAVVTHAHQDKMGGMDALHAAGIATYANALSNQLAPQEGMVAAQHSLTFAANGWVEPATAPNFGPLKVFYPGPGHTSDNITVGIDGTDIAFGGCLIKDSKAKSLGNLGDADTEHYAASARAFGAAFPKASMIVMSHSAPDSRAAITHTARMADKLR

Compound	pIC50 (VIM-1)	pIC50 (IMP-1)	pIC50 (NDM-1)	NDM1 EC30016 MITC95 [1] [µM]	IMP1 SM5741 MITC95 [2] [µM]	VIM1 KP599644 MITC95 [3] [µM]
O=C(O)[C@@H](CCCC1CCNCC1)[C@H](Cc1ccc(C2=CCNC2)cc1)c1nnn[nH]1 [Example 433, (S)-2-((S)-2-(4-(2,5-dihydro-1H-pyrrol-3-yl)phenyl)-1-(1H-tetrazol-5-yl)ethyl)-5-(piperidin-4-yl)pentanoic acid compound with 222,-trifluroacetic acid (1:2)]	7.99	5.70	7.06	12.5	100	12.5
O=C(O)[C@@H](CCCC1CCNCC1)[C@H](Cc1ccc(C2CCNC2)cc1)c1nnn[nH]1 (stereo partly drawn) [Example 434, (2S)-5-(piperidin-4-yl)-2-((1S)-2-(4-(pyrrolidin-3-yl)phenyl)-1-(1H-tetrazol-5-yl)ethyl)pentanoic acid 2,2,2-trifluoroacetate (1:2)]	7.78	5.70	7.17	12.5	100	25
Nc1ccc(C[C@H](c2nnn[nH]2)[C@H](CC(F)(F)F)C(=O)O)cn1 [Example 435, (S)-2-((S)-2-(6-aminopyridin-3-yl)-1-(1H-tetrazol-5-yl)ethyl)-4,4,4-trifluorobutanoic acid]	7.87	5.11	6.36	0.7813	50	2.344
O=C(O)[C@@H](CC(F)(F)F)[C@H](Cc1ccc(NCCO)nc1)c1nnn[nH]1 [Example 436, (S)-4,4,4-trifluoro-2-((S)-2-(6-((2-hydroxyethyl)amino)pyridin-3-yl)-1-(1H-tetrazol-5-yl)ethyl)butanoic acid]	7.27	5.08	5.98	2.344	100	25
CCC[C@H](C(=O)O)[C@H](Cc1ccc2c(c1)CNC2)c1nnn[nH]1 [Example 437, (S)-2-((S)-2-(isoindolin-5-yl)-1-(1H-tetrazol-5-yl)ethyl)pentanoic acid compound with 2,2,2-trifluoroacetic acid (1:1)]	8.76	4.94	6.27	4.688	150	6.25
CC(C)C[C@H](C(=O)O)[C@H](Cc1ccc(CCN2CCCCC2=O)c(F)c1)c1nn[nH]n1 [Example 438, (S)-2-((S)-2-(3-fluoro-4-(2-(2-oxopiperidin-1-yl)ethyl)phenyl)-1-(2H-tetrazol-5-yl)ethyl)-4-methylpentanoic acid]	8.80	8.31	7.87	25	1.172	75
CC(C)C[C@H](C(=O)O)[C@H](Cc1ccc(CN2CCC(O)C2)c(F)c1)c1nn[nH]n1.O=C(O)C(F)(F)F (stereo partly drawn) [Example 439, 5-((2S,3S)-3-carboxy-1-(3-fluoro-4-((3-hydroxypyrrolidin-1-yl)methyl)phenyl)-5-methylhexan-2-yl)-2H-tetrazol-3-ium 2,2,2-trifluoroacetate]	8.36	6.32	6.65	31.25	37.5	37.5
CC(C)C[C@H](C(=O)O)[C@H](Cc1ccc(CCCN)c(F)c1)c1nn[nH]n1.O=C(O)C(F)(F)F [Example 440, 5-((2S,3S)-1-(4-(3-aminopropyl)-3-fluorophenyl)-3-carboxy-5-methylhexan-2-yl)-2H-tetrazol-3-ium 2,2,2-trifluoroacetate]	8.79	6.91	7.43	6.25	6.25	12.5
CC(C)C[C@H](C(=O)O)[C@H](Cc1ccc(COCCN2CCNCC2)c(F)c1)c1nn[nH]n1.O=C(O)C(F)(F)F [Example 441, 5-((2S,3S)-3-carboxy-1-(3-fluoro-4-((2-(piperazin-1-yl)ethoxy)methyl)phenyl)-5-methylhexan-2-yl)-4422H-tetrazol-3-ium 2,2,2-trifluoroacetate]	7.71	6.67	6.95	25	18.75	50
CC(C)C[C@H](C(=O)O)[C@H](Cc1ccc(COCC2CCNCC2)c(F)c1)c1nn[nH]n1.O=C(O)C(F)(F)F [Example 442, 5-((2S,3S)-3-carboxy-1-(3-fluoro-4-((piperidin-4-ylmethoxy)methyl)phenyl)-5-methylhexan-2-yl)-2H-tetrazol-3-ium 2,2,2-trifluoroacetate]	8.06	6.96	7.13	12.5	6.25	25
CC(C)C[C@H](C(=O)O)[C@H](Cc1ccc(CN(C)C)c(F)c1)c1nn[nH]n1.O=C(O)C(F)(F)F [Example 443, 1-(4-((2S,3S)-3-carboxy-5-methyl-2-(2H-tetrazol-5-yl)hexyl)-2-fluorophenyl)-N,N-dimethylmethanaminium 2,2,2-trifluoroacetate]	8.37	5.98	6.53	12.5	37.5	25
CC(C)C[C@H](C(=O)O)[C@H](Cc1ccc(CN2CCC(N)CC2)c(F)c1)c1nn[nH]n1.O=C(O)C(F)(F)F [Example 444, 1-(4-((2S,3S)-3-carboxy-5-methyl-2-(2H-tetrazol-5-yl)hexyl)-2-fluorobenzyl)piperidin-4-aminium 2,2,2-trifluoroacetate]	7.12	6.67	7.08	9.375	12.5	25
CC(C)C[C@H](C(=O)O)[C@H](Cc1ccc(CCN)c(F)c1)c1nn[nH]n1.O=C(O)C(F)(F)F [Example 445, 2-(4-((2S,3S)-3-carboxy-5-methyl-2-(2H-tetrazol-5-yl)hexyl)-2-fluorophenyl)ethanaminium 2,2,2-trifluoroacetate]	8.70	6.16	6.55	9.375	25	12.5
CC(C)C[C@H](C(=O)O)[C@H](Cc1ccc(CN2CCNCC2)c(F)c1)c1nn[nH]n1.O=C(O)C(F)(F)F [Example 446, 4-(4-((2S,3S)-3-carboxy-5-methyl-2-(2H-tetrazol-5-yl)hexyl)-2-fluorobenzyl)piperazin-1-ium 2,2,2-trifluoroacetate]	8.16	6.42	6.77	12.5	18.75	25
CC(C)C[C@H](C(=O)O)[C@H](Cc1ccc(COC2CCNCC2)c(F)c1)c1nn[nH]n1.O=C(O)C(F)(F)F [Example 447, 4-((4-((2S,3S)-3-carboxy-5-methyl-2-(2H-tetrazol-5-yl)hexyl)-2-fluorobenzyl)oxy)piperidin-1-ium 2,2,2-trifluoroacetate]	8.20	6.79	6.98	9.375	6.25	25
CCC[C@H](C(=O)O)[C@H](Cc1ccccc1C1=CCC(NC)CC1)c1nn[nH]n1 (stereo partly drawn) [Example 448, 2′-((2S,3S)-3-carboxy-2-(2H-tetrazol-5-yl)hexyl)-N-methyl-2,3,4,5-tetrahydro-[1,1′-biphenyl]-4-aminium 2,2,2-trifluoroacetate]	7.31	5.11	7.03	12.5	200	37.5
CCC[C@H](C(=O)O)[C@H](Cc1ccccc1C1=CCC(N)CC1)c1nn[nH]n1 (stereo partly drawn) [Example 449, 2′-((2S,3S)-3-carboxy-2-(2H-tetrazol-5-yl)hexyl)-2,3,4,5-tetrahydro-[1,1′-biphenyl]-4-aminium 2,2,2-trifluoroacetate]	7.06	5.05	7.14	9.375	200	25
CC(C)C[C@H](C(=O)O)[C@H](Cc1ccc(C2=CCCNC2)c(F)c1)c1nn[nH]n1 [Example 450, 5-(4-((2S,3S)-3-carboxy-5-methyl-2-(2H-tetrazol-5-yl)hexyl)-2-fluorophenyl)-1,2,3,6-tetrahydropyridin-1-ium 2,2,2-trifluoroacetate]	8.66	6.86	7.05	7.813	6.25	18.75
